Experiments:
[1] = Clinical Resting Energy Expenditure study; assay type: in vivo; conditions: paraxanthine 100 mg or 300 mg; BHB 5 g; paraxanthine 100 mg or 300 mg with BHB 5 g; 180-day period
Procedure: FIGS. 16A-16B show expected results of a clinical Resting Energy Expenditure study, where participants are supplemented with paraxanthine alone (100 mg or 300 mg), BHB alone (5 g), or paraxanthine (100 mg or 300 mg) in combination with BHB (5 g) over a 180-day period. […] Because of the presence of the BHB ketone body component, such increased metabolic rate is also more likely to occur within the context of ketogenic state, where fat is principally used as the caloric energy source for the increased resting metabolic rate.

[2] = biological target: adenosine A2a receptors (Homo sapiens, UniProt P29274); conditions: compared with caffeine; cited from earlier work
[3] = test system: healthy young adults; assay: Berg-Washington Card Sorting Task Test; assay type: in vivo; conditions: 200 mg paraxanthine, 5 g BHB, 200 mg paraxanthine and 5 g BHB
From the text: (§1) The Berg-Washington Card Sorting Task (BCST) test is a test routinely used in the field to evaluate cognitive flexibility. The BCST test focuses on basic cognitive flexibility or set-shifting between old vs. new rule changes. The test involves reasoning, learning, executive control, and attention shifting. It is particularly sensitive to the subject's inability to shift set. Cards are shown with different colors (e.g., red, green, yellow, blue), different designs (e.g., circle, triangle, star, plus sign) and different numbers of symbols (e.g., 1-4) on the computer screen. Participants are asked to sort the cards by matching colors and/or designs and/or number of symbols, where the instruction for how to sort the cards can change, at different times during the test. Number of correct responses and number of errors (particular perservative errors, where the participant incorrectly continues sorting the cards under an old instruction, after a new instruction is given) are recorded. When running each such tests, subjects are given either paraxanthine+BHB, paraxanthine alone, BHB alone, or a placebo. The dosage amounts are 200 mg paraxanthine and 5 g of BHB, 200 mg of paraxanthine alone, 5 g of BHB alone, or a placebo. The testing is conducted under double blind, placebo controlled conditions. […]

[4] = test system: healthy trained male runners; assay: Vigilance Task Test before and after 10 km treadmill run; assay type: in vivo; conditions: 200 mg paraxanthine, 200 mg caffeine, 5 g BHB, and combinations, FIG. 13
From the text: The Vigilance Task Test is another test routinely used in the field, and is used to evaluate a participants ability to sustain attention. The Vigilance Task Test is a sustained attention, reaction timed task test that measures the speed with which participants respond to a visual stimulus. The subjects respond to visual stimuli (e.g., a red dot) by pressing a key as soon as it appears on the computer screen. The light turns on at random, e.g., roughly every couple of seconds or so during the test. The speed of response is measured. Due to the random nature of the test, there is no learning effect. Mean response time is recorded. […] The testing is conducted under double blind, placebo controlled conditions. The subjects include 12 healthy trained male runners, aged 26±5 years. Baseline cognition tests are administered (PRE), the given supplement is ingested, and after 60 minutes of rest, a pre-race cognition test (PRE-EX) is administered. A 10 km run on a treadmill is then performed, followed by a post-race cognition test (POST), The cognition tests include a Vigilance Task Test (measuring the ability to remain heedfully vigilant) and a Berg-Washington Card Sorting Task Test (measuring cognitive flexibility).

[5] = 28-day sports nutrition clinical study; assay type: in vivo; conditions: paraxanthine 100 mg, paraxanthine 100 mg with BHB 5 g, 28 days, exercise 5 days per week
From the text: Participants exercise 5 days per week, of the 4-week study. […] Increases in nitric oxide levels, as well as improved blood lipids scores (e.g., TG, TC, LDL, HDL) are also observed.

[6] = in vivo; cited from earlier work
[7] = test system: healthy trained male runners; assay: Berg-Washington Card Sorting Task Test before and after 10 km treadmill run; assay type: in vivo; conditions: 200 mg paraxanthine, 200 mg caffeine, 5 g BHB, and combinations, after 10 km treadmill run
From the text: as §1, with “When running each such tests, subjects are given either paraxanthine+BHB, paraxanthine alone, BHB alone, or a placebo. The dosage amounts are 200 mg paraxanthine and 5 g of BHB, 200 mg of paraxanthine alone, 5 g of BHB alone, or a placebo.” left out, “conditions. The subjects include 12 healthy trained male runners, aged 26±5 years. Baseline cognition tests are administered (PRE), the given supplement is ingested, and after 60 minutes of rest, a pre-race cognition test (PRE-EX) is administered.” for “conditions.”

[8] = Age-related cognitive decline study; assay type: in vivo
[9] = cited from earlier work
[10] = test system: dopaminergic neurons; conditions: cited from earlier work

adenosine A2a receptors, sequence (P29274 whole entry): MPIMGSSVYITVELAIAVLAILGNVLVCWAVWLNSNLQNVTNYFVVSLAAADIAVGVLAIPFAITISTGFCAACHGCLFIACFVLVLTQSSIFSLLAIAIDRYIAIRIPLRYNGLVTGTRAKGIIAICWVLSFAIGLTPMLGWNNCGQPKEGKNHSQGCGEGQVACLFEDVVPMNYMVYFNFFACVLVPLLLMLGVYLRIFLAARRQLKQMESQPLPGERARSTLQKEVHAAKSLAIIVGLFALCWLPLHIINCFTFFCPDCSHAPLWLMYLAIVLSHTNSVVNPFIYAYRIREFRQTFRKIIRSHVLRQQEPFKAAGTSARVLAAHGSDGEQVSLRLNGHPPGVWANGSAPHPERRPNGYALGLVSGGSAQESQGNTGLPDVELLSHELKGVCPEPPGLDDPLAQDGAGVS

## Cn1c(=O)[nH]c2ncn(C)c2c1=O [paraxanthine, 1,7-dimethylxanthine]
[1]
  resting energy expenditure: some increase in resting energy expenditure
[2]
  binding potency for adenosine A2a receptors: higher binding potencies
[3]; FIG. 7
  Berg-Washington Card Sorting Task Test number of correct responses: significant increase in the number of correct responses
[3]; FIG. 8
  Berg-Washington Card Sorting Task Test number of errors: reduction in the number of errors
[4]
  Vigilance Task Test response times: some benefit
[5]; FIG. 14A
  endurance (treadmill distance): some improvement
[5]; FIG. 14B
  muscle mass: some improvement
[5]; FIG. 14C
  grip strength: some improvement
[6]
  wake promoting activity: stronger wake promoting activity as compared to caffeine
[7]; FIG. 12A
  Berg-Washington Card Sorting Task Test correct responses, POST relative to PRE: some improvement in correct responses
[7]; FIGS. 12B-12D
  Berg-Washington Card Sorting Task Test errors, POST relative to PRE: reduced errors
[8]; PX 25 mg
  Acetylcholine: 61.04 U/mL
  BDNF: 828.05 pg/mL
  Catalase: 30.24 U/mL
  Dopamine: 493.65 ng/L
  Escape Latency: 49.9 s
  Glutathione: 24.04 µg/mL
[8]; PX 100 mg
  Acetylcholine: 69.27 U/mL
  BDNF: 939.15 pg/mL
  Catalase: 38.91 U/mL
  Dopamine: 596.32 ng/L
  Escape Latency: 21.31 s
  Glutathione: 34.41 µg/mL
[9]; elimination half-life, FIG. 3
  half-life: 3.1 h
[9]; in vivo
  Total plasma clearance: 2.20 mL/min/kg
[10]
  protection against neurodegeneration and the loss of synaptic function: strongly protective
